Measurements from patent publication US20180023041A1, “CLEANING COMPOSITIONS CONTAINING A DIAMINOSTILBENE BRIGHTENER” (The Procter & Gamble Company, priority 2016, published 2018).

Experiment: Dissolution of brightener from granular laundry detergent formulations in hardness water, UV-Vis absorbance of filtered solution at 350 nm
Type: physicochemical
Conditions: in comparison with the control formulation with LAS only; in words
Procedure: The total surfactant levels for Formulations A-H are maintained the same at 20 wt %.
Prepare 10 gpg hardness water (Ca:Mg=3:1) and place 1L of such hardness water in each of 8 beakers separately. Weight a 6.12g sample from each of the Formulations A-H hereabove respectively, and put the samples into beakers with hardness water on the maganetic stirrers. Stir for 15 mins to dissolve the sample.
Take about 8 ml solution by using a 10m1 injection syringe. Install a 0.45pm filter on the injection syringe for filtering the solution when it is injected out of the syringe. Inject the filtered solution into a sample cuvette of the UV-Vis spectrophotometer. Place the sample cuvette in a measuring position of the UV-Vis spectrophotometer. Read and record the absorbance (ABS) of solutions at a UV wavelength of 350nm respectively.

In the case of `O=S(=O)([O-])c1ccccc1C=Cc1ccc(-c2ccc(C=Cc3ccccc3S(=O)(=O)[O-])cc2)cc1.[Na+].[Na+]` [Florescent Brigthener 351, disodium 2,2′-([1,1′-biphenyl]-4,4′-diyldivinylene)bis(benzenesulphonate)], the “dissolution of the brightener in a surfactant system containing LAS, mid-cut AS, and soap” value is reported as “much less”.
